# Data published in article PMC7367283, “A PIP2 substitute mediates voltage sensor-pore coupling in KCNQ activation” (Communications Biology, 2020).
# Target: T1, KV4.2 (Rattus norvegicus, UniProt Q63881)
# T1 sequence (Q63881 1-630): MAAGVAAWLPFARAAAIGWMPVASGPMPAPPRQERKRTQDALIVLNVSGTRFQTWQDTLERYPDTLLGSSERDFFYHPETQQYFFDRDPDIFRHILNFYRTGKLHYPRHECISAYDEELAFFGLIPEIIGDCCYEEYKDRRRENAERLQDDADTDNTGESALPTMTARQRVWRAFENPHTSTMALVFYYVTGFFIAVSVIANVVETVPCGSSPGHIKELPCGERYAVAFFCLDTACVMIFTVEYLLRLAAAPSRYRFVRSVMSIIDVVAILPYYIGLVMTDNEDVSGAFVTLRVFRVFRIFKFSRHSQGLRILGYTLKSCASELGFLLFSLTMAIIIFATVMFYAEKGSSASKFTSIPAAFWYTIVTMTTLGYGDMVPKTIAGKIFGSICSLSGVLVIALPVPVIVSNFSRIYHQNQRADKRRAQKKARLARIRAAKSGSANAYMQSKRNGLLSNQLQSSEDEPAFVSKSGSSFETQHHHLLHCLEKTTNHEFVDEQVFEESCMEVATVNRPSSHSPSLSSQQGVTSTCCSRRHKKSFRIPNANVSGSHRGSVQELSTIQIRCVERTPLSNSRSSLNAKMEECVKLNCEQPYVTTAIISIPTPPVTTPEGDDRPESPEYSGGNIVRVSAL
# Experiment: Two-electrode voltage clamp of KV4.2 in Xenopus oocytes
# Type: cell-based, human
# Conditions: 10 µM CP1
# Source text: Since CP1 has a similar effect to PIP2 in mediating VSD-pore coupling in KCNQ channels, we tested if CP1 has effects on other ion channels that are also sensitive to PIP2 or are voltage activated and share general structural features of the VSD and the pore with KCNQ. […] On the other hand, NaV1.5 and KV4.2 are voltage-gated ion channels.
# Fig. 6 Effects of CP1 on other ion channels expressed in Xenopus oocytes. a Currents of Kir1.1, CaV1.2, NaV1.5, hERG, and KV4.2 before and after application of 10 µM CP1, respectively. The voltages for holding, test, and returning pulses were Kir1.1, 0 mV, −100 to +60 mV, 0; CaV1.2, −100 mV, −100 to +60, −100 mV; NaV1.5, −100, −120 to +40 mV, −120 mV; hERG, −80 mV, −90 to +60 mV, −60 mV; KV4.2, −80 mV, −100 mV to +80 mV, −40 mV; HCN4, −30 mV, −30 to −140 mV, −120 mV. b Current–voltage relations of Kir1.1 channel in the absence or presence of 10 µM CP1 (n = 7). c–g G–V relations of indicated channels with and without 10 µM CP1. The ΔV1/2 of G–V relations (mV) are CaV1.2, 3.38 ± 0.71 mV (c); NaV1.5, −2.26 ± 0.95 mV (d); hERG, 6.85 ± 1.81 mV (e); KV 4.2, −2.26 ± 2.88 mV (f); HCN4, 17.13 ± 1.59 mV (g).
# Complementary DNA (cDNA) encoding human KCNQ1 (UniProtKB/Swiss‐Prot under accession no. P51787), KCNQ2 (O43526), KCNQ3 (O43525), KCNE1 (P15382), Kir1.1 (P48048), hERG (Q12809), KV4.2 (Q63881), NaV1.5 (Q14524), NaV β1 (Q07699), CaV1.2 (Q13936), CaV β1a (Q02641), CaV α2/δ1 (P54289), and HCN4 (Q9Y3Q4) were subcloned into oocyte expression vectors, respectively. Site-directed mutations of the KCNQ1 channel were all produced by overlap extension polymerase chain reaction (PCR) with high-fidelity Pfu polymerase (Stratagene, CA). The presence of the desired mutation was verified by sequencing the PCR-amplified regions. All the primer sequences used in this study are available in Supplementary Table 1. The complementary RNA (cRNA) of all these channels and mutations was transcribed in vitro with the T3, T7, or SP6 polymerase mMessage mMachine kit (Invitrogen, Thermo Fisher Scientific, MO).
# The whole-oocyte ionic currents were recorded with a GeneClamp 500B amplifier (Axon Instruments, CA) or iTEV90 amplifier (HEKA, Germany) and then sampled at 1 kHz and low-pass-filtered at 2 kHz. The Patchmaster software (HEKA, Germany) was used to acquire data. The Kir1.1 current was recorded with a high K^+ bath solution containing (in mM) 96 KCl, 4 NaCl, 1 CaCl2, 2 MgCl2, and 10 HEPES, pH 7.3–7.4. The HCN4 current was recorded in ND66 solution containing (in mM) 66 NaCl, 32 KCl, 1.8 CaCl2, 1 MgCl2, and 5 HEPES, pH 7.6. All the other potassium channels were recorded in ND96 solution. The currents of CaV1.2 channel were recorded in 40 mM Ba^2+ bath solution containing (in mM) 40 Ba(OH)2, 50 TEA-OH, 2 KOH, and 5 HEPES, adjusted to pH 7.4 with methanesulfonic acid. CP1 (DISODIUM 5-BROMO-2-[9-CHLORO-3-(SULFONATOOXY) NAPHTHO [1,2-B] THIEN-2-YL]-1H-INDOL-3-YL SULFATE, Sigma-Aldrich, MO) and Chromanol 293B (Sigma-Aldrich, MO) were dissolved in bath solutions. All the chemicals were purchased from Sigma-Aldrich. To measure the I–V relations of the Kir1.1 channel, the test voltage was set from −100 to +60 mV for 1 s with 20-mV increments. The test pulses were stepped from a holding potential of 0 mV and then stepped back to 0 mV. The HCN4 currents were recorded by a test pulse between −30 and −140 mV in 10-mV step from a holding potential of −30 mV. For all the other potassium channels and CaV1.2 channel, the holding potential was −80 or −100 mV, and the test pulse was applied with 10-mV increment, which was followed with a repolarization pulse at −40 mV before returning to the holding potential. The durations of test and the repolarization pulse vary for different channels to allow the activation and deactivation of the channel to reach their steady states.
smiles,measurement,setting,value
"O=S(=O)([O-])Oc1c(-c2sc3c(ccc4cccc(Cl)c43)c2OS(=O)(=O)[O-])[nH]c2ccc(Br)cc12.[Na+].[Na+] [CP1, DISODIUM 5-BROMO-2-[9-CHLORO-3-(SULFONATOOXY) NAPHTHO [1,2-B] THIEN-2-YL]-1H-INDOL-3-YL SULFATE]",ΔV1/2 of G–V relations,,−2.26 ± 2.88 mV
same,G/Gmax Mean (Fig. 6f),voltage 0 mV,0.3489
same,G/Gmax Mean (Fig. 6f),voltage 10 mV,0.4229
same,G/Gmax Mean (Fig. 6f),voltage 20 mV,0.5032
same,G/Gmax Mean (Fig. 6f),voltage 30 mV,0.5901
same,G/Gmax Mean (Fig. 6f),voltage 40 mV,0.6796
same,G/Gmax Mean (Fig. 6f),voltage 50 mV,0.7731
same,G/Gmax Mean (Fig. 6f),voltage 60 mV,0.8507
same,G/Gmax Mean (Fig. 6f),voltage 70 mV,0.9365
same,G/Gmax Mean (Fig. 6f),voltage 80 mV,1.0000
same,G/Gmax Mean (Fig. 6f),voltage -10 mV,0.2734
same,G/Gmax Mean (Fig. 6f),voltage -20 mV,0.2218
same,G/Gmax Mean (Fig. 6f),voltage -30 mV,0.1858
same,G/Gmax Mean (Fig. 6f),voltage -40 mV,0.1969
same,G/Gmax Mean (Fig. 6f),voltage -50 mV,0.2134
